The text below walks through data of ChEMBL document CHEMBL3120151, “Synthesis and in vivo evaluation of N-ethylamino-2-oxo-1,2-dihydro-quinoline-3-carboxamide for inhibition of intestinal tumorigenesis in APC(Min/+) mice” (Bioorg Med Chem Lett, 2014).

The source made the active and inactive calls. The rule behind the calls is not given here.

Data set [1] concerns Mus musculus. Kind of data set: Toxicity in APCMin/+ mouse model assessed as change in body weight at 150 ppm administered with diet from week 6 to week 18 relative to control. It is filed as organism-based. The conditions noted are these: in vivo, po.
The subject of data set [2] is Cancer cell lines. The data set is described as follows: Antitumor activity against colon cancer cells in APCMin/+ mouse model assessed as inhibition of colon tumor formation at 150 ppm administered with diet from week 6 to week 18 relative to control. It counts as functional.
The subject of data set [3] is Mus musculus. Kind of data set: Antitumor activity against intestinal polyp in APCMin/+ mouse model assessed as reduction in intestinal polyp formation with size >2 mm at 150 ppm administered with diet from week 6 to week 18 relative to control. It is filed as functional.
For data set [4], the system named is Mus musculus. The data set is described as follows: Antitumor activity against intestinal polyp in APCMin/+ mouse model at 150 ppm administered with diet from week 6 to week 18 relative to control. It counts as functional.

As for `NCCNC(=O)c1cc2ccccc2[nH]c1=O`, the Activity entry in data set [1] is “Non-toxic”. Moreover, the outcome in data set [2] and in data set [4] was inactive. The outcome in data set [3] was Active.
